Literature values in patent publication US20040265344A1, “Aloe suppositories” (priority 2003, published 2004).

Experiments:
[1] = system: rat colonic mucosa sodium and potassium adenosine triphosphatase (ATP-ase); conditions: in vitro

Row | SMILES | effect on rat colonic mucosa sodium and potassium ATP-ase [1] | effect on the rise in residual fluid volume (residual fluid volume)
1 | O=C1c2c(O)cccc2Cc2cc(CO)cc(O)c21 [Aloe-emodin-9-anthrone] | inhibited | 
2 | CN(C)C(=O)C(CCN1CCC(O)(c2ccc(Cl)cc2)CC1)(c1ccccc1)c1ccccc1 [loperamide] |  | did not completely inhibit
